# Experimental data published in patent publication US10329282B2, “Rho-associated protein kinase inhibitor, pharmaceutical composition comprising the same, as well as preparation method and use thereof” (Beijing Tide Pharmaceutical Co., Ltd., priority 2017, dated 2019).
# Molecular target: ROCK2 (Homo sapiens (Human), UniProt O75116)
# Experiment: ROCK2 kinase IC50 assay (CISBIO HTRF KinEASE-STK S2 kit)
# Assay type: biochemical
# Details: ROCK2 from Carna Biosciences, 2 h incubation at room temperature
# Procedure: The kinase IC50 was determined by a commercialized CISBIO kinase detection kit, HTRF KinEASE-STK S2 kit (62ST2PEC). ROCK2 (01-119) employed in the reaction was purchased from Carna Biosciences.
# Before the assay, the following working solutions as needed were formulated with corresponding reagents according to the instruction of the kinase detection kit: 1×kinase buffer, 5×STK-52 substrate working solution (1.5 μM) and 5×ATP working solution (1.5 μM), 5×ROCK2 kinase working solution, 4×Streptavidin-XL665 working solution, and 4×STK-Ab-Cryptate 2 detection solution. Then the assay was performed according to the following procedure.
# A solution of a compound at a concentration of 10000 nM was prepared with the 1×kinase buffer containing 2.5% DMSO. Gradient dilution of the solution of the compound was performed with the kinase buffer containing DMSO, so as to obtain solutions of a test compound at 9 different concentrations. In addition to wells of test compounds, a positive well (containing all the reagents except the compound) and a negative well (containing all the reagents except the test compound and kinase) were set. Except for the control wells (positive and negative wells), a solution of a test compound (4 μL) was added to each of the reaction wells, and a solution of 2.5% DMSO was added to the control wells. Then the substrate (2 μM, i.e., 2 μL 5×STK-S2 substrate working solution) was added to each of the reaction wells. The 5×ROCK2 kinase working solution (2 μL, containing 1.4 ng ROCK2 kinase) was added to each of the reaction wells except for the negative well, the volume of which was made up with the 1×kinase buffer (2 μL). The 5×ATP working solution (2 μL) was added to each of the reaction wells, and the mixtures were incubated at room temperature for 2 hours. After the kinase reaction was complete, the 4×Streptavidin-XL665 working solution was added to each of the reaction wells, the solutions were mixed, followed by immediate addition of the 4×STK-Ab-Cryptate 2 detection solution (5 μL), and the mixtures were incubated at room temperature for 1 hour. The fluorescence signal was read on ENVISION (Perkinelmer) (excitation wavelength: 320 nm, and emission wavelength: 665 nm and 615 nm). The inhibitory rate in each well was calculated based on the fluorescence intensity value: ER (Emission Ratio)=(fluorescence intensity at 665 nm/fluorescence intensity at 615 nm); inhibitory rate=(ERpositive−ERtest compound) (ERpositive−ERnegative)*100%. Curves were plotted and fitted to obtain the median inhibitory concentration (IC50) of each teat compound with the PRISM 5.0 software.
# Chain of ROCK2 (O75116 1-553): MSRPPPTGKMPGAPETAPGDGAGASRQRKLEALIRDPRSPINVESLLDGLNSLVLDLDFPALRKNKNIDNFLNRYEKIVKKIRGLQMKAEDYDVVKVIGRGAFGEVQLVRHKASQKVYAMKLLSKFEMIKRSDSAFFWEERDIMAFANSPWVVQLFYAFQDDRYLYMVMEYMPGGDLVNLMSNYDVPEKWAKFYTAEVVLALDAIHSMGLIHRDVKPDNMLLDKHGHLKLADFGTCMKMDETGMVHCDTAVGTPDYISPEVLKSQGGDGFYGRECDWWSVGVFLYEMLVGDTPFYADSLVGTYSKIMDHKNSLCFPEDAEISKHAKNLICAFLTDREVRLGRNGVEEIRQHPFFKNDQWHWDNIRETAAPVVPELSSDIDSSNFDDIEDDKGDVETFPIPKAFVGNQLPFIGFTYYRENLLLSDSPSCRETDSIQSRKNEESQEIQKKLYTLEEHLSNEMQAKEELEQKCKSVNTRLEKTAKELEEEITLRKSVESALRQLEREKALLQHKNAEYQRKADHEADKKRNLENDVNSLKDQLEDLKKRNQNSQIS
row,SMILES,IC50 [nM]
1,"CC(C)NC(=O)C1COc2ccc(-c3nccc(Nc4ccc5[nH]ncc5c4)n3)cc2O1 (centres unmarked) [TDI01103, 7-(4-((1H-indazol-5-yl)amino)pyrimidin-2-yl)-N-isopropyl-2,3-dihydrobenzo[b][1,4]dioxine-2-carboxamide]",167
2,"O=C(c1cc2ccc(-c3nccc(Nc4ccc(-c5cn[nH]c5)cc4)n3)cc2[nH]1)N1CCOCC1 [TDI01331, (6-(4-((4-(1H-pyrazol-4-yl)phenyl)amino)pyrimidin-2-yl)-1H-indol-2-yl)(morpholino)methanone]",260
3,"O=C(Nc1cccnc1)c1cc2ccc(-c3nccc(Nc4ccc(-c5cn[nH]c5)cc4)n3)cc2[nH]1 [TDI01397, 6-(4-((4-(1H-pyrazol-4-yl)phenyl)amino)pyrimidin-2-yl)-N-(pyridin-3-yl)-1H-indole-2-carboxamide]",120
4,"CC(C)NC(=O)c1c[nH]c2ccc(-c3nccc(Nc4ccc5[nH]ncc5c4)n3)cc12 [TDI01285, 5-(4-((1H-indazol-5-yl)amino)pyrimidin-2-yl)-N-isopropyl-1H-indole-3-carboxamide]",116
5,"C[C@@H](CN)NC(=O)c1cc2ccc(-c3nccc(Nc4ccc(-c5cn[nH]c5)cc4)n3)cc2[nH]1 [TDI01856, (S)-6-(4-((4-(1H-pyrazol-4-yl)phenyl)amino)pyrimidin-2-yl)-N-(1-aminopropan-2-yl)-1H-indole-2-carboxamide]",141
6,"O=C(Nc1ccncc1)c1cc2ccc(-c3nccc(Nc4ccc(-c5cn[nH]c5)cc4)n3)cc2[nH]1 [TDI01363, 6-(4-((4-(1H-pyrazol-4-yl)phenyl)amino)pyrimidin-2-yl)-N-(pyridin-4-yl)-1H-indole-2-carboxamide]",104
7,CN(CC(F)(F)F)C(=O)c1cc2ccc(-c3ncc(F)c(Nc4ccc(-c5cn[nH]c5)cc4)n3)cc2[nH]1 [TDI01426],365
8,"O=C(Nc1ccccn1)c1cc2ccc(-c3nccc(Nc4ccc5[nH]ncc5c4)n3)cc2[nH]1 [TDI01311, 6-(4-((1H-indazol-5-yl)amino)pyrimidin-2-yl)-N-(pyridin-2-yl)-1H-indole-2-carboxamide]",465
9,"CC(C)NC(=O)c1cc2ccc(-c3nc(Nc4ccc5[nH]ncc5c4)c4ccccc4n3)cc2[nH]1 [TDI01128, 6-(4-((1H-indazol-5-yl)amino)quinazolin-2-yl)-N-isopropyl-1H-indole-2-carboxamide]",145
10,"CN1CCC2(CC1)CCN(C(=O)c1cc3ccc(-c4nccc(Nc5ccc6[nH]ncc6c5)n4)cc3[nH]1)CC2 [TDI01320, (6-(4-((1H-indazol-5-yl)amino)pyrimidin-2-yl)-1H-indol-2-yl)(9-methyl-3,9-diazaspiro[5.5]undecan-3-yl)methanone]",410
11,"O=C(Nc1ccncc1Cl)c1cc2ccc(-c3nccc(Nc4ccc(-c5cn[nH]c5)cc4)n3)cc2[nH]1 [TDI01354, 6-(4-((4-(1H-pyrazol-4-yl)phenyl)amino)pyrimidin-2-yl)-N-(3-chloropyridin-4-yl)-1H-indole-2-carboxamide]",254
12,CCNC(=O)c1cc2cc(-c3nccc(Nc4ccc(-c5cn[nH]c5)cc4)n3)ccc2[nH]1 [TDI01408],400
13,"CC(C)NC(=O)c1cc2ccc(-c3nccc(Nc4ccc5[nH]ncc5c4)n3)cc2o1 [TDI01102, 6-(4-((1H-indazol-5-yl)amino)pyrimidin-2-yl)-N-isopropylbenzofuran-2-carboxamide]",110
14,"CCNC(=O)N1Cc2ccc(-c3nccc(Nc4ccc(-c5cn[nH]c5)cc4)n3)cc2C1 [TDI01411, 5-(4-((4-(1H-pyrazol-4-yl)phenyl)amino)pyrimidin-2-yl)-N-ethylisoindoline-2-carboxamide]",258
15,"CNC(=O)c1cc2ccc(-c3nccc(Nc4ccc(-c5cn[nH]c5)cc4)n3)cc2[nH]1 [TDI01296, 6-(4-((4-(1H-pyrazol-4-yl)phenyl)amino)pyrimidin-2-yl)-N-methyl-1H-indole-2-carboxamide]",211
16,"COc1ccc(NC(=O)c2cc3ccc(-c4nccc(Nc5ccc6[nH]ncc6c5)n4)cc3[nH]2)cn1 [TDI01315, 6-(4-((1H-indazol-5-yl)amino)pyrimidin-2-yl)-N-(6-methoxypyridin-3-yl)-1H-indole-2-carboxamide]",126
17,"CN(C)C(=O)c1cc2ccc(-c3nccc(Nc4ccc(-c5cn[nH]c5)cc4)n3)cc2[nH]1 [TDI01294, 6-(4-((4-(1H-pyrazol-4-yl)phenyl)amino)pyrimidin-2-yl)-N,N-dimethyl-1H-indole-2-carboxamide]",352
18,O=C(Nc1ccncc1)c1cc2ccc(-c3nccc(Nc4ccc(-c5cn[nH]c5)cc4)n3)cc2s1 [TDI01393],258
19,"CCN(CCO)C(=O)c1cc2ccc(-c3nccc(Nc4ccc(-c5cn[nH]c5)cc4)n3)cc2[nH]1 [TDI01415, 6-(4-((4-(1H-pyrazol-4-yl)phenyl)amino)pyrimidin-2-yl)-N-ethyl-N-(2-hydroxyethyl)-1H-indole-2-carboxamide]",262

# Further lines, results first:
row,IC50 [nM],SMILES
1,28,"CC(CO)NC(=O)c1cc2ccc(-c3nccc(Nc4ccc5[nH]ncc5c4)n3)cc2[nH]1 (centres unmarked) [TDI01176, 6-(4-((1H-indazol-5-yl)amino)pyrimidin-2-yl)-N-(1-hydroxypropan-2-yl)-1H-indole-2-carboxamide]"
2,42,"O=C(NC1CCOC1)c1cc2ccc(-c3nccc(Nc4ccc5[nH]ncc5c4)n3)cc2s1 (centres unmarked) [TDI01113, 6-(4-((1H-indazol-5-yl)amino)pyrimidin-2-yl)-N-(tetrahydrofuran-3-yl)benzo[b]thiophene-2-carboxamide]"
3,72,"CC(C)NC(=O)c1cc2ccc(-c3nc(Nc4ccc5[nH]ncc5c4)c4cc[nH]c4n3)cc2[nH]1 [TDI01143, 6-(4-((1H-indazol-5-yl)amino)-7H-pyrrolo[2,3-d]pyrimidin-2-yl)-N-isopropyl-1H-indole-2-carboxamide]"
4,66,"CC(C)NC(=O)c1cc2ccc(-c3nc(Nc4ccc5[nH]ncc5c4)c4sccc4n3)cc2s1 [TDI01136, 6-(4-((1H-indazol-5-yl)amino)thieno[3,2-d]pyrimidin-2-yl)-N-isopropylbenzo[b]thiophene-2-carboxamide]"
5,46,"O=C(Nc1ccncc1Cl)c1cc2ccc(-c3nccc(Nc4ccc5[nH]ncc5c4)n3)cc2[nH]1 [TDI01290, 6-(4-((1H-indazol-5-yl)amino)pyrimidin-2-yl)-N-(3-chloropyridin-4-yl)-1H-indole-2-carboxamide]"
6,73,"CC(C)NC(=O)c1cc2ccc(-c3nc(Nc4ccc5[nH]ncc5c4)c4sccc4n3)cc2[nH]1 [TDI01141, 6-(4-((1H-indazol-5-yl)amino)thieno[3,2-d]pyrimidin-2-yl)-N-isopropyl-1H-indole-2-carboxamide]"
7,101,"O=C(NC1CC1)c1cc2ccc(-c3nccc(Nc4ccc(-c5cn[nH]c5)cc4)n3)cc2[nH]1 [TDI01324, 6-(4-((4-(1H-pyrazol-4-yl)phenyl)amino)pyrimidin-2-yl)-N-cyclopropyl-1H-indole-2-carboxamide]"
8,18,"CN1CCC(N2CCCC(NC(=O)c3cc4ccc(-c5nccc(Nc6ccc7[nH]ncc7c6)n5)cc4[nH]3)C2)CC1 (centres unmarked) [TDI01318, 6-(4-((1H-indazol-5-yl)amino)pyrimidin-2-yl)-N-(1′-methyl-[1,4′-bipiperidin]-3-yl)-1H-indole-2-carboxamide]"
9,97,"CN(C(=O)c1cc2ccc(-c3nccc(Nc4ccc(-c5cn[nH]c5)cc4)n3)cc2[nH]1)C1COC1 [TDI01344, 6-(4-((4-(1H-pyrazol-4-yl)phenyl)amino)pyrimidin-2-yl)-N-methyl-N-(oxetan-3-yl)-1H-indole-2-carboxamide]"
10,28,O=C(c1cc2ccc(-c3nccc(Nc4ccc(-c5cn[nH]c5)cc4)n3)cc2[nH]1)N1CC(C(F)F)C1 [TDI01435]
11,32,"O=C(NC1CCOCC1)c1cc2ccc(-c3nccc(Nc4ccc5[nH]ncc5c4)n3)cc2[nH]1 [TDI01291, 6-(4-((1H-indazol-5-yl)amino)pyrimidin-2-yl)-N-(tetrahydro-2H-pyran-4-yl)-1H-indole-2-carboxamide]"
12,91,"CN(C)c1ccc(NC(=O)c2cc3ccc(-c4nccc(Nc5ccc6[nH]ncc6c5)n4)cc3[nH]2)cn1 [TDI01221, 6-(4-((1H-indazol-5-yl)amino)pyrimidin-2-yl)-N-(6-(dimethylamino)pyridin-3-yl)-1H-indole-2-carboxamide]"
13,62,"O=C(Nc1cnc2[nH]ccc2c1)c1cc2ccc(-c3nccc(Nc4ccc5[nH]ncc5c4)n3)cc2[nH]1 [TDI01258, 6-(4-((1H-indazol-5-yl)amino)pyrimidin-2-yl)-N-(1H-pyrrolo[2,3-b]pyridin-5-yl)-1H-indole-2-carboxamide]"
